Blank lines part the entries; values can stand above or below the compound they belong to.
Tests used:
[1] = EFdA rat PK studies (SC and IM); assay type: in vivo, Wistar Han rats
Source text: A total of seven naïve male Wistar Han rats, 200-250 g, were received from the supplier equipped with a surgically-implanted jugular vein catheter (JVC) for blood sample collection. Following an acclimation period, the animals were assigned to the study based on acceptable health as determined by a staff veterinarian and catheter patency. Animals were placed into two groups of 3 rats per group. Fasting of the animals before or after dosing was not required.
On Day 1 each animal in Group 1 received a single subcutaneous injection of prepared test article at a target dose level of 20 mg/kg and at a dose volume of 0.33 mL/kg. Each animal in Group 2 received a single intramuscular injection of prepared test article into a thigh muscle at a target dose level of 20 mg/kg and at a dose volume of 0.33 mL/kg. The injection sites were shaved prior to dosing and identified with an indelible marker for daily monitoring during the study. The animals were manually restrained for dosing and were not sedated. The dose suspension was mixed well by inversion before each dose to ensure homogeneity. […] In addition, all animals are monitored twice daily by the veterinary staff for clinical abnormalities. […]
The PK plasma samples were analyzed by the Testing Facility to determine the concentration of EFdA using an LC-MS/MS Research Grade Assay (RGA-1) with sensitivity to 0.1 ng/mL. […]

[2] = system: HIV pseudotyped virus (NL4-3 provirus, luciferase reporter), WT; assay: PSV (pseudotyped virus) assay, WT; details: Human immunodeficiency virus 1, NL43, 72 h, read-out: WT IC50
[3] = system: HIV pseudotyped virus, M184V; assay type: cell-based; details: U373 cells (CD4, CXCR4 or CCR5), luciferase signal after 3 days

Detectable duration of exposure of EFdA ([1]; IM and SC administration of 20 mg/kg EFdA): less than 8 days
SMILES: C#C[C@]1(CO)O[C@@H](n2cnc3c(N)nc(F)nc32)C[C@@H]1O [EFdA, (2R,3S,5R)-5-(6-amino-2-fluoro-9H-purin-9-yl)-2-ethynyl-2-(hydroxymethyl)tetrahydrofuran-3-ol]
Clinical observations and injection site reactions ([1]; 20 mg/kg single SC or IM injection, study period to Day 29): No abnormal clinical observations and no injection site reactions

SMILES: C#C[C@]1(COC(=O)CCCCCCCCCCCCC)O[C@@H](n2cnc3c(N)nc(F)nc32)C[C@@H]1OC(=O)CCCCCCCCCCCCC [Example 17, (2R,3S,5R)-5-(6-amino-2-fluoro-9H-purin-9-yl)-2-ethynyl-2-((tetradecanoyloxy)methyl)tetrahydrofuran-3-yl Tetradecanoate]
IC50 [2]: 1740 nM
IC50 [3]: 10300 nM

SMILES: C#C[C@]1(COC(=O)CCCCCCCCCCCCC(=O)O)O[C@@H](n2cnc3c(N)nc(F)nc32)C[C@@H]1O [Example 10, 14-(((2R,3S,5R)-5-(6-amino-2-fluoro-9H-purin-9-yl)-2-ethynyl-3-hydroxytetrahydrofuran-2-yl)methoxy)-14-oxotetradecanoic Acid]
IC50 [2]: 9 nM
IC50 [3]: 44 nM

SMILES: C#C[C@]1(COC(=O)CCCC(=O)OCCCCCCCCCCCCCC)O[C@@H](n2cnc3c(N)nc(F)nc32)C[C@@H]1O [Example 14, ((2R,3S,5R)-5-(6-amino-2-fluoro-9H-purin-9-yl)-2-ethynyl-3-hydroxytetrahydrofuran-2-yl)methyl Tetradecyl Glutarate]
IC50 [2]: 33 nM
IC50 [3]: 148 nM

SMILES: C#C[C@]1(COC(=O)c2ccccc2)O[C@@H](n2cnc3c(N)nc(F)nc32)C[C@@H]1O [Example 2, ((2R,3S,5R)-5-(6-amino-2-fluoro-9H-purin-9-yl)-2-ethynyl-3-hydroxytetrahydrofuran-2-yl)methyl Benzoate]
IC50 [2]: 3 nM
IC50 [3]: 13 nM

SMILES: C#C[C@]1(COC(=O)CCCC)O[C@@H](n2cnc3c(N)nc(F)nc32)C[C@@H]1OC(=O)CCCCCC [Example 20, (2R,3S,5R)-5-(6-amino-2-fluoro-9H-purin-9-yl)-2-ethynyl-2-((pentanoyloxy)methyl)tetrahydrofuran-3-yl Heptanoate]
IC50 [2]: 5 nM
IC50 [3]: 25 nM

SMILES: C#C[C@]1(COC(=O)COCCOCCCC)O[C@@H](n2cnc3c(N)nc(F)nc32)C[C@@H]1O [Example 8, ((2R,3S,5R)-5-(6-amino-2-fluoro-9H-purin-9-yl)-2-ethynyl-3-hydroxytetrahydrofuran-2-yl)methyl 2-(2-butoxyethoxy)acetate]
IC50 [2]: 2 nM
IC50 [3]: 11 nM

SMILES: C#C[C@]1(COC(=O)CNC(=O)CCCCCCCCCCCCC)O[C@@H](n2cnc3c(N)nc(F)nc32)C[C@@H]1O [Example 35, ((2R,3S,5R)-5-(6-amino-2-fluoro-9H-purin-9-yl)-2-ethynyl-3-hydroxytetrahydrofuran-2-yl)methyl Tetradecanoylglycinate]
IC50 [2]: 1 nM
IC50 [3]: 9 nM

SMILES: C#C[C@]1(COC(=O)CCCC)O[C@@H](n2cnc3c(N)nc(F)nc32)C[C@@H]1OC(=O)CC [Example 24, ((2R,3S,5R)-5-(6-amino-2-fluoro-9H-purin-9-yl)-2-ethynyl-3-(propionyloxy)tetrahydrofuran-2-yl)methyl Pentanoate]
IC50 [2]: 66 nM
IC50 [3]: 351 nM

SMILES: C#C[C@]1(COC(=O)C(CCC)CCC)O[C@@H](n2cnc3c(N)nc(F)nc32)C[C@@H]1OC(=O)CCC [Example 30, ((2R,3S,5R)-5-(6-amino-2-fluoro-9H-purin-9-yl)-3-(butyryloxy)-2-ethynyltetrahydrofuran-2-yl)methyl 2-propylpentanoate]
IC50 [2]: 334 nM
IC50 [3]: 1500 nM

SMILES: C#C[C@]1(COC(=O)COCCOC)O[C@@H](n2cnc3c(N)nc(F)nc32)C[C@@H]1O [Example 6, ((2R,3S,5R)-5-(6-amino-2-fluoro-9H-purin-9-yl)-2-ethynyl-3-hydroxytetrahydrofuran-2-yl)methyl 2-(2-methoxyethoxy)acetate]
IC50 [2]: 4 nM
IC50 [3]: 25 nM

SMILES: C#C[C@]1(COC(=O)CCCC)O[C@@H](n2cnc3c(N)nc(F)nc32)C[C@@H]1OC(=O)CCCCCCCCCCCC [Example 19, (2R,3S,5R)-5-(6-amino-2-fluoro-9H-purin-9-yl)-2-ethynyl-2-((pentanoyloxy)methyl)tetrahydrofuran-3-yl Tridecanoate]
IC50 [2]: 18 nM
IC50 [3]: 87 nM

SMILES: C#C[C@]1(COC(=O)CCCCCCCCC)O[C@@H](n2cnc3c(N)nc(F)nc32)C[C@@H]1OC(=O)OCC [Example 15, ((2R,3S,5R)-5-(6-amino-2-fluoro-9H-purin-9-yl)-3-((ethoxycarbonyl)oxy)-2-ethynyltetrahydrofuran-2-yl)methyl Decanoate]
IC50 [2]: 77 nM
IC50 [3]: 328 nM

SMILES: C#C[C@]1(COC(=O)CCCC)O[C@@H](n2cnc3c(N)nc(F)nc32)C[C@@H]1OC(=O)CCCCCCCC [Example 22, (2R,3S,5R)-5-(6-amino-2-fluoro-9H-purin-9-yl)-2-ethynyl-2-((pentanoyloxy)methyl)tetrahydrofuran-3-yl Nonanoate]
IC50 [2]: 7 nM
IC50 [3]: 35 nM

SMILES: C#C[C@]1(COC(=O)CNC(=O)CCCCCC)O[C@@H](n2cnc3c(N)nc(F)nc32)C[C@@H]1O [Example 34, ((2R,3S,5R)-5-(6-amino-2-fluoro-9H-purin-9-yl)-2-ethynyl-3-hydroxytetrahydrofuran-2-yl)methyl Heptanoylglycinate]
IC50 [2]: 4 nM
IC50 [3]: 25 nM

SMILES: C#C[C@]1(COC(=O)CCCC)O[C@@H](n2cnc3c(NC(=O)CCCCCCCCCCC)nc(F)nc32)C[C@@H]1O [Example 28, ((2R,3S,5R)-5-(6-dodecanamido-2-fluoro-9H-purin-9-yl)-2-ethynyl-3-hydroxytetrahydrofuran-2-yl)methyl Pentanoate]
IC50 [2]: 6 nM
IC50 [3]: 26 nM

SMILES: C#C[C@]1(COC(=O)[C@H]2CC[C@H](CCCCC)CC2)O[C@@H](n2cnc3c(N)nc(F)nc32)C[C@@H]1O [Example 5, ((2R,3S,5R)-5-(6-amino-2-fluoro-9H-purin-9-yl)-2-ethynyl-3-hydroxytetrahydrofuran-2-yl)methyl trans-4-pentylcyclohexane-1-carboxylate]
IC50 [2]: 1 nM
IC50 [3]: 7 nM

SMILES: C#C[C@]1(COC(=O)[C@H](C)NC(=O)CCCCCC)O[C@@H](n2cnc3c(N)nc(F)nc32)C[C@@H]1O [Example 36, ((2R,3S,5R)-5-(6-amino-2-fluoro-9H-purin-9-yl)-2-ethynyl-3-hydroxytetrahydrofuran-2-yl)methyl heptanoyl-L-alaninate]
IC50 [2]: 4 nM
IC50 [3]: 21 nM

SMILES: C#C[C@]1(COC(=O)[C@H]2CC[C@H](C(C)(C)C)CC2)O[C@@H](n2cnc3c(N)nc(F)nc32)C[C@@H]1O [Example 4, ((2R,3S,5R)-5-(6-amino-2-fluoro-9H-purin-9-yl)-2-ethynyl-3-hydroxytetrahydrofuran-2-yl)methyl trans-4-(tert-butyl)cyclohexane-1 carboxylate]
IC50 [2]: 3 nM
IC50 [3]: 17 nM

SMILES: C#C[C@]1(COC(=O)CCCC)O[C@@H](n2cnc3c(N)nc(F)nc32)C[C@@H]1OC(=O)CCCCCCCCCC [Example 21, (2R,3S,5R)-5-(6-amino-2-fluoro-9H-purin-9-yl)-2-ethynyl-2-((pentanoyloxy)methyl)tetrahydrofuran-3-yl Undecanoate]
IC50 [2]: 7 nM
IC50 [3]: 44 nM

SMILES: C#C[C@]1(COC(=O)CCCC)O[C@@H](n2cnc3c(NC(=O)CCCCCCC)nc(F)nc32)C[C@@H]1O [Example 26, ((2R,3S,5R)-2-ethynyl-5-(2-fluoro-6-octanamido-9H-purin-9-yl)-3-hydroxytetrahydrofuran-2-yl)methyl Pentanoate]
IC50 [2]: 7 nM
IC50 [3]: 28 nM

SMILES: C#C[C@]1(COC(=O)CCCCCC)O[C@@H](n2cnc3c(N)nc(F)nc32)C[C@@H]1OC(=O)CCCCCC [Example 16, (2R,3S,5R)-5-(6-amino-2-fluoro-9H-purin-9-yl)-2-ethynyl-2-((heptanoyloxy)methyl)tetrahydrofuran-3-yl Heptanoate]
IC50 [2]: 8 nM
IC50 [3]: 31 nM

SMILES: C#C[C@]1(COC(=O)CCCC(=O)OC(COC(=O)CCCCCC)COC(=O)CCCCCC)O[C@@H](n2cnc3c(N)nc(F)nc32)C[C@@H]1O [Example 12, ((2R,3S,5R)-5-(6-amino-2-fluoro-9H-purin-9-yl)-2-ethynyl-3-hydroxytetrahydrofuran-2-yl)methyl (1,3-bis(heptanoyloxy)propan-2-yl) glutarate]
IC50 [2]: 34 nM
IC50 [3]: 151 nM

Source: patent US12240853B2, “Compounds useful in HIV therapy” (GlaxoSmithKline Intellectual Property (No.2) Limited, priority 2019, dated 2025)
